Measurements as given in patent publication US11021486B2, “Coumarin-like cyclic compound as MEK inhibitor and use thereof” (CSTONE PHARMACEUTICALS, priority 2017, dated 2021).
Where two headings read alike, the source gives them in different places.

Assays:
[1] = Pharmacokinetics study of the compounds in C57BL/6 mice; format: in vivo; settings: male, mouse, single intravenous and oral dose, plasma; for bioavailability: read-out: Bioavailability F; for AUC: read-out: Comcentration quadrature AUC; for half-life: read-out: Half life T1/2 (converted)
Experimental: Biological Test Method 4: Pharmacokinetics Study of the Compounds in C57BL/6 Mice Experimental Materials: C57BL/6 mice (male, 18-22 g, 7-9 weeks old, Shanghai Lingchang) Experimental Procedure: The pharmacokinetic characteristics of the compounds in rodents were determined after intravenous and oral administration of the compounds by standard protocols. In the experiment, candidate compounds were formulated into clear solutions, and intravenously and orally administrated to […] in a single dose. The menstruum for intravenous and oral administration was DMSO, PEG and water at a certain ratio or Solutol, HPMC and SLS aqueous solutions at a certain ratio. The whole blood samples within 24 hours were collected, centrifuged at 3,000 rpm for 15 minutes, and the supernatants were isolated to obtain plasma samples. An acetonitrile solution containing an internal standard with a volume of 4 times as the plasma sample volume was added to precipitate the protein. After centrifugation, the supernatant was collected and an equal volume of water was added. After centrifugation, the supernatant was collected and injected to quantitatively analyze the blood drug concentration by LC-MS/MS analysis method, and the pharmacokinetic parameters were calculated, e.g., peak concentration, peak time, clearance, half-life, area under the drug concentration-time curve, bioavailability, etc.

HT29 cells = assay: Cell viability experiment (Cell Titer-Glo), HT29; format: cell-based, human; settings: Homo sapiens, HT-29, 72 h
Experimental: (§1) Biological Test Method 2: Cell Viability Experiment
(§2) HT29 and A375 cells were plated in a 96-well cell culture plate at a density of 40,000 cells/well and 20,000 cells/well respectively, and the cells were cultured overnight. The compounds were serially diluted in a gradient of 1:3, the dilutions were added to the cell culture medium, and incubated with the cells in a 37° C. incubator for 3 days. The 96-well cell culture plate was taken from the incubator and equilibrated at room temperature for 30 minutes, then Cell Titer-Glo reagent (Promega Cat #G7573) was added at a ratio of 1:2, and the mixture was mixed thoroughly on a shaker for 2 minutes to promote cell lysis. The cell culture plate was incubated at room temperature for 10 minutes and then read on an Envision microplate reader (PerkinElmer). XLfit5 software was used for data analysis and mapping.

activated MEK1 = biological target: T1, activated MEK1 (Homo sapiens, UniProt Q02750); assay: MEK Lance Ultra experiment; format: biochemical; settings: 0.07 nM activated MEK1, 2 nM non-activated ERK, 50 μM ATP; read-out: MEK potency IC50
T1 construct: purchased Millipore 14-429
T1 sequence (Q02750 whole entry): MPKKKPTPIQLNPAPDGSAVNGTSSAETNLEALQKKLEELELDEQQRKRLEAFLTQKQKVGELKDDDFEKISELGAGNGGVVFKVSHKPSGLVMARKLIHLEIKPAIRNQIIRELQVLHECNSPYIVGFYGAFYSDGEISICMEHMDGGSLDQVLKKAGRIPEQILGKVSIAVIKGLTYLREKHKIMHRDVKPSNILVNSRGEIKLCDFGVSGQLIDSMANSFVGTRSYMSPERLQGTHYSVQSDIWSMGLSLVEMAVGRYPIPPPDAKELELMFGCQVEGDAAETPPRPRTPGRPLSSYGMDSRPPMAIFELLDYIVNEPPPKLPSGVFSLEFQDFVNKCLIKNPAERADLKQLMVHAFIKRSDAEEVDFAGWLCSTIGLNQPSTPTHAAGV
Experimental: Biological Test Method 1: MEK Lance Ultra Experiment Compounds were serially diluted three-fold to 10 concentrations, two duplicates were set. Final test concentrations of the compounds ranged from 10 μM to 0.51 nM. 0.07 nM activated MEK1 (Millipore #14-429) and 2 nM non-activated ERK (Millipore #14-515) were mixed with the compounds or DMSO, the mixture was incubated at 23° C. for 30 minutes. Then 50 nM ULight labeled MBP (PerkinElmer #TRF0109-M) and 50 μM ATP (Invitrogen #PV3227) were added to initiate the reaction, and the mixture was incubated at 23° C. for 90 minutes. After the reaction was stopped by adding EDTA at a final concentration of 15 mM, 2 nM Eu-labeled anti-phosphorylated antibody (PerkinElmer #TRF0201-M) was added and incubated for 1 hour. The fluorescence signal data (excitation band: 320 nm; emission band: 665 nM/615 nM) was determined by an Envision microplate reader (PerkinElmer). XLfit5 software was used for data analysis and mapping.

[2] = tested on: HT-29 cell subcutaneous xenograft tumor; assay: In vivo pharmacodynamics study on HT-29 cell subcutaneous xenograft tumor model; design: species or system BALB/c nude mouse; settings: QD
Experimental: Biological Test Method 3: In Vivo Pharmacodynamics Study on HT-29 Cell Subcutaneous Xenograft Tumor Model in BALB/c Nude Mouse
Human colon cancer HT-29 cells (ATCC-HTB-38) were cultured in monolayer in vitro, with McCoy's 5a medium (Gibco, 1835937) supplemented with 10% fetal bovine serum, 100 U/mL penicillin and 100 μg/mL streptomycin, at 37° C. under 5% CO2. The cells were conventionally digested with trypsin-EDTA and passaged twice a week. When the cell saturation was 80%-90%, the cells were collected, counted and inoculated. 0.1 mL (5×10^6) of HT-29 cells was subcutaneously inoculated into the right back of each nude mouse. […] The diameter of the tumor was measured twice a week with a vernier caliper. The tumor volume is calculated by the formula: V=0.5a×b^2, wherein a and b represent the length and width respectively. The antitumor activity of the compounds was evaluated by TGI (%), which reflects the tumor growth inhibition rate. Calculation of TGI (%): TGI (%)=[(1−(average tumor volume at the end of administration in a treatment group−average tumor volume at the start of treatment in this treatment group))/(average tumor volume at the end of treatment in the solvent control group−average tumor volume at the start of treatment in the solvent control group)]×100%.

A375 cells = assay: Cell viability experiment (Cell Titer-Glo), A375; format: cell-based; settings: Homo sapiens, A-375, 72 h
Experimental: as §1, §2

[3] = HT29 cells, 3 days incubation, read-out: HT29 IC50
[4] = A375 cells, 3 days incubation, read-out: A375 IC50
[5] = read-out: HT29 IC50, HT29 cells, 3 days incubation
[6] = read-out: A375 IC50, A375 cells, 3 days incubation

clearance [1] [mL/min/kg]	bioavailability [1] [%]	AUC [1] [µM·h]	half-life [1] [min]	IC50 (HT29 cells; [3]) [nM]	IC50 (activated MEK1) [nM]	IC50 (A375 cells; [4]) [nM]	Compound	TGI ([2]; 0.2 mpk, 25 days (5 days administration, and 2 days break)) [%]	TGI ([2]; 0.5 mpk, 21 days) [%]	TGI ([2]; 3 mpk, 21 days) [%]	IC50 (HT29 cells; [5]) [nM]	TGI ([2]; 0.5 mpk (0-11 D): 0.35 mpk (12-21 D), 21 days) [%]	IC50 (A375 cells; [6]) [nM]
1.85	99.2	28.6	457	7.44	77.3	4.58	Cc1c(Nc2ccc(I)cc2F)c2c(=O)n(C3CC3)c(C)c(-c3cccc(NS(C)(=O)=O)c3)c2oc1=O [WX066]	–	89	–	–	–	–
1.84	68.7	30.5	325	6.39	27.8	1.48	CC(=O)Nc1cccc(-c2c(C)n(C3CC3)c(=O)c3c(Nc4ccc(I)cc4F)c(C)c(=O)oc23)c1 [WX034]	–	–	90.6	–	–	–
–	–	–	–	35.6	128	10.1	Cc1c(Nc2ccc(I)cc2F)c2c(=O)n(C3CC3)c(C)c(-c3cccc(N[S+]([O-])C(C)(C)C)c3)c2oc1=O (stereo not shown) [WX091]	–	–	–	–	–	–
–	–	–	–	2820	54.1	1550	CC(=O)Nc1cccc(-c2c(C)n(CCN(C)C(C)=O)c(=O)c3c(Nc4ccc(I)cc4F)c(C)c(=O)oc23)c1 [WX056]	–	–	–	–	–	–
–	–	–	–	98.8	111	32.9	Cc1c(Nc2ccc(I)cc2F)c2c(=O)n(C3CC3)c(C)cc2oc1=O [WX035]	–	–	–	–	–	–
0.912	83	58.2	317	4.05	66	2.99	Cc1c(Nc2ccc(I)cc2F)c2c(=O)n(C3CC3)c(C)c(-c3cccc(CS(C)(=O)=O)c3)c2oc1=O [WX071]	–	91	–	–	–	–
–	–	–	–	5.52	35.3	3.23	Cc1c(Nc2ccc(I)cc2F)c2c(=O)n(C3CC3)c(C)c(-c3ccnc(N)c3)c2oc1=O [WX079]	–	–	–	–	–	–
–	–	–	–	2.05	12.3	0.37	CC(=O)Nc1cccc(Cc2c(C)n(C3CC3)c(=O)c3c(Nc4ccc(I)cc4F)c(C)c(=O)oc23)c1 [WX102]	–	–	–	–	–	–
–	–	–	–	72.5	78	24.1	COCCCn1c(C)cc2oc(=O)c(C)c(Nc3ccc(I)cc3F)c2c1=O [WX057]	–	–	–	–	–	–
–	–	–	–	75.3	199	25.1	Cc1c(Nc2ccc(I)cc2F)c2c(=O)n(C3CC3)c(C)c(-c3cccc(N(S(C)(=O)=O)S(C)(=O)=O)c3)c2oc1=O [WX067]	–	–	–	–	–	–
–	–	–	–	3.93	97.4	1.75	CCS(=O)(=O)Nc1cccc(-c2c(C)n(C3CC3)c(=O)c3c(Nc4ccc(I)cc4F)c(C)c(=O)oc23)c1 [WX082]	–	–	–	–	–	–

Compound	clearance [1] [mL/min/kg]	bioavailability [1] [%]	AUC [1] [µM·h]	half-life [1] [min]	IC50 (HT29 cells; [3]) [nM]	IC50 (activated MEK1) [nM]	IC50 (A375 cells; [4]) [nM]	TGI ([2]; 0.2 mpk, 25 days (5 days administration, and 2 days break)) [%]	TGI ([2]; 0.5 mpk, 21 days) [%]	TGI ([2]; 3 mpk, 21 days) [%]	IC50 (HT29 cells; [5]) [nM]	TGI ([2]; 0.5 mpk (0-11 D): 0.35 mpk (12-21 D), 21 days) [%]	IC50 (A375 cells; [6]) [nM]
Cc1c(NS(C)(=O)=O)cccc1-c1c(C)n(C2CC2)c(=O)c2c(Nc3ccc(I)cc3F)c(C)c(=O)oc12 (single isomer, unassigned) [WX113]	2.92	73.1	17.6	278	0.82	5.61	0.37	82.8	–	–	–	–	–
Cc1c(NS(C)(=O)=O)cccc1-c1c(C)n(C2CC2)c(=O)c2c(Nc3ccc(I)cc3F)c(C)c(=O)oc12 [WX086]	2.2	76.8	23.4	420	–	29.6	–	–	–	–	0.62	83.1	0.4
Cc1c(CS(=O)(=O)C2CC2)cccc1-c1c(C)n(C2CC2)c(=O)c2c(Nc3ccc(I)cc3F)c(C)c(=O)oc12 [WX108]	–	–	–	–	–	29.6	–	–	–	–	13.1	–	2.3
Cc1c(CS(C)(=O)=O)cccc1-c1c(C)n(C2CC2)c(=O)c2c(Nc3ccc(I)cc3F)c(C)c(=O)oc12 [WX106]	–	–	–	–	–	29.9	–	–	–	–	5.89	–	2.32
CC(=O)Nc1cccc(-c2c(C)n(C3CC3)c(=O)c3c(Nc4ccc(I)cc4F)c(C)c(=O)oc23)c1C [WX096]	–	–	–	–	–	8.73	–	–	–	–	10.3	–	2.47
